Data reported in patent US9771341B2, “Piperazine carbamates and methods of making and using same” (Abide Therapeutics, Inc., priority 2015, dated 2017).
Where two headings read alike, the source gives them in different places.

Key:
Format in all cases: biochemical
MAGL = target: T1, MAGL (Mus musculus, UniProt O35678); assay: In vitro competitive activity-based protein profiling (mouse), MAGL; settings: for inhibition at 1 µM: read-out: % Inhibition at 1 μM MAGL; for IC50: mouse brain membrane fraction or cell lysates, 30 min preincubation at 37° C, FP-Rh probe
T1 construct: Proteomes (mouse brain membrane fraction or cell lysates); from tissue; host or cells: mouse brain membrane fraction (or unspecified cell lysates)
T1 sequence (O35678 1-303): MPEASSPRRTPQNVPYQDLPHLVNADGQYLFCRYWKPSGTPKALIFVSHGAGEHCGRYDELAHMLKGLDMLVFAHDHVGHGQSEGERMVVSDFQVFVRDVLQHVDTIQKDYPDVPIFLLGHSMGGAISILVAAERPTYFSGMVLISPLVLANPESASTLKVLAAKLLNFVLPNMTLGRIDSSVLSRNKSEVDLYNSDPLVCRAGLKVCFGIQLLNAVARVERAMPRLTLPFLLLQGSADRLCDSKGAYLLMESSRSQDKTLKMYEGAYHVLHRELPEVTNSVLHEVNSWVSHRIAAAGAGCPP
Experimental: (§1) In Vitro Competitive Activity-Based Protein Profiling (Mouse).
(§2) Proteomes (mouse brain membrane fraction or cell lysates) (50 μL, 1.0 mg/mL total protein concentration) were preincubated with varying concentrations of inhibitors at 37° C. After 30 min, FP-Rh (1.0 μL, 50 μM in DMSO) was added and the mixture was incubated for another 30 min at 37° C. Reactions were quenched with SDS loading buffer (50 μL-4×) and run on SDS-PAGE.

ABHD6 = target: T2, ABHD6 (Mus musculus, UniProt Q8R2Y0); assay: In vitro competitive activity-based protein profiling (mouse), ABHD6; settings: for inhibition at 1 µM: read-out: % Inhibition at 1 μM ABHD6; for IC50: mouse brain membrane fraction or cell lysates, 30 min preincubation at 37° C, FP-Rh probe
T2 construct: Proteomes (mouse brain membrane fraction or cell lysates); from tissue; host or cells: mouse brain membrane fraction (or unspecified cell lysates)
T2 sequence (Q8R2Y0 1-336): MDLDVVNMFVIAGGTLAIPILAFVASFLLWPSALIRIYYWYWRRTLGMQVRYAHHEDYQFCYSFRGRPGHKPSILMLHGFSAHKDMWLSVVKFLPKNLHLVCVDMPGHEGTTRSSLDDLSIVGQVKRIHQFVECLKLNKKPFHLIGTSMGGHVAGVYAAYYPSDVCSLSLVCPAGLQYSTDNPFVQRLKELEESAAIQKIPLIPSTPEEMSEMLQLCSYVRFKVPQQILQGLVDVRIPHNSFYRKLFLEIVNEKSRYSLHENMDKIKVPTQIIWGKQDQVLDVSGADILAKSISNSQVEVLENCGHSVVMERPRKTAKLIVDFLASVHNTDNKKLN
Experimental: as §1, §2

FAAH = target: T3, FAAH (Mus musculus, UniProt O08914); assay: In vitro competitive activity-based protein profiling (mouse), FAAH; settings: for inhibition at 1 µM: mouse proteome, in vitro; for IC50: mouse brain membrane fraction or cell lysates, 30 min preincubation at 37° C, FP-Rh probe
T3 construct: Proteomes (mouse brain membrane fraction or cell lysates); from tissue; host or cells: mouse brain membrane fraction (or unspecified cell lysates)
T3 sequence (O08914 1-579): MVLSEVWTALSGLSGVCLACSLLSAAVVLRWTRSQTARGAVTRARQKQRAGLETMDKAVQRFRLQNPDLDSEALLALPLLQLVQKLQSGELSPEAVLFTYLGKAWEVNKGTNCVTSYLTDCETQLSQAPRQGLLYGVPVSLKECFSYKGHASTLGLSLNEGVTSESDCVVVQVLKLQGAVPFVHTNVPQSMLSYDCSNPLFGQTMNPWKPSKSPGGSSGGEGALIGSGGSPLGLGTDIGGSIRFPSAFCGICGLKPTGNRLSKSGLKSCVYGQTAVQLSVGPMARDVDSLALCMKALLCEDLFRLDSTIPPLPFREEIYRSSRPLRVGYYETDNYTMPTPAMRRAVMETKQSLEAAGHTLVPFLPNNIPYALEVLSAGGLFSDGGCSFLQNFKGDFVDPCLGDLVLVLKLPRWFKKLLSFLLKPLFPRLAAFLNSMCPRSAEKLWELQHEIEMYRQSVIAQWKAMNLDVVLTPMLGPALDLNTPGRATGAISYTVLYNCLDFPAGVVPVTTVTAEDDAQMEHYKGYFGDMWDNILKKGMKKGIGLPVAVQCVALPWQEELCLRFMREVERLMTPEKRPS
Experimental: as §1
as §2, with “SDS-PAGE. Following gel imaging, serine hydrolase activity was determined by measuring fluorescent intensity of gel bands corresponding to MAGL, ABHD6 and FAAH using ImageJ 1.43u software.” for “SDS-PAGE.”

Compound | inhibition at 1 µM (MAGL; 1 μM, mouse proteome, in vitro) | IC50 (MAGL) | inhibition at 1 µM (ABHD6; 1 μM, mouse proteome, in vitro) | IC50 (ABHD6) | inhibition at 1 µM (FAAH) | IC50 (FAAH) | inhibition at 1 µM (MAGL) | inhibition at 1 µM (ABHD6)
CS(=O)(=O)N[C@@H]1CCN(c2cccc(C(F)(F)F)c2CN2CCN(C(=O)OC(C(F)(F)F)C(F)(F)F)CC2)C1 [Example 47, 1,1,1,3,3,3-hexafluoropropan-2-yl (R)-4-(2-(3-(methylsulfonamido)pyrrolidin-1-yl)-6-(trifluoromethyl)benzyl)piperazine-1-carboxylate] | > 75% |  | < 25% |  | < 25% |  |  | 
CS(=O)(=O)N[C@H]1CCN(c2cccc(C(F)(F)F)c2CN2CCN(C(=O)OC(C(F)(F)F)C(F)(F)F)CC2)C1 [Example 48, 1,1,1,3,3,3-hexafluoropropan-2-yl (S)-4-(2-(3-(methylsulfonamido)pyrrolidin-1-yl)-6-(trifluoromethyl)benzyl)piperazine-1-carboxylate] | 25 to 75% |  | < 25% |  | < 25% |  |  | 
O=C(OC(C(F)(F)F)C(F)(F)F)N1CCN(Cc2c(N3C4CCC3COC4)cccc2C(F)(F)F)CC1 [Example 49, 1,1,1,3,3,3-hexafluoropropan-2-yl 4-(2-(3-oxa-8-azabicyclo[3.2.1]octan-8-yl)-6-(trifluoromethyl)benzyl)piperazine-1-carboxylate] |  |  |  |  | < 25% |  | 25 to 75% | < 25%
O=C(OC(C(F)(F)F)C(F)(F)F)N1CCN(Cc2c(N3CC4CCC(C3)O4)cccc2C(F)(F)F)CC1 [Example 50, 1,1,1,3,3,3-hexafluoropropan-2-yl 4-(2-(8-oxa-3-azabicyclo[3.2.1]octan-3-yl)-6-(trifluoromethyl)benzyl)piperazine-1-carboxylate] | < 25% |  | < 25% |  | < 25% |  |  | 
O=C(OC(C(F)(F)F)C(F)(F)F)N1CCN(Cc2ccc(Cl)cc2N2CCC3(CCCN3C3CC3)CC2)CC1 [Example 66, 1,1,1,3,3,3-hexafluoropropan-2-yl 4-(4-chloro-2-(1-cyclopropyl-1,8-diazaspiro[4.5]decan-8-yl)benzyl)piperazine-1-carboxylate] | > 75% | 100 to 1000 nM | 25 to 75% | > 1000 nM | < 25% | > 1000 nM |  | 
O=C(OC(C(F)(F)F)C(F)(F)F)N1CCN(Cc2ccc(C(F)(F)F)cc2N2CCC3(CCCN3C3CC3)CC2)CC1 [Example 67, 1,1,1,3,3,3-hexafluoropropan-2-yl 4-(2-(1-cyclopropyl-1,8-diazaspiro[4.5]decan-8-yl)-4-(trifluoromethyl)benzyl)piperazine-1-carboxylate] | > 75% | 100 to 1000 nM | < 25% | > 1000 nM | < 25% | > 1000 nM |  | 
O=C(OC(C(F)(F)F)C(F)(F)F)N1CCN(Cc2ccc(C(F)(F)F)cc2N2CCC(C(=O)N3CCCC3)CC2)CC1 [Example 68, 1,1,1,3,3,3-hexafluoropropan-2-yl 4-(2-(4-(pyrrolidine-1-carbonyl)piperidin-1-yl)-4-(trifluoromethyl)benzyl)piperazine-1-carboxylate] | > 75% | 100 to 1000 nM | < 25% | > 1000 nM | < 25% | > 1000 nM |  | 

Continued, in another order:

inhibition at 1 µM (MAGL; 1 μM, mouse proteome, in vitro) | IC50 (MAGL) | inhibition at 1 µM (ABHD6; 1 μM, mouse proteome, in vitro) | IC50 (ABHD6) | inhibition at 1 µM (FAAH) | IC50 (FAAH) | Compound | inhibition at 1 µM (MAGL) | inhibition at 1 µM (ABHD6)
> 75% | < 100 nM | < 25% | 100 to 1000 nM | < 25% | > 1000 nM | Cc1cc(C)n(C2CN(c3cc(Cl)ccc3CN3CCN(C(=O)OC(C(F)(F)F)C(F)(F)F)CC3)C2)n1 [Example 38, 1,1,1,3,3,3-hexafluoropropan-2-yl 4-(4-chloro-2-(3-(3,5-dimethyl-1H-pyrazol-1-yl)azetidin-1-yl)benzyl)piperazine-1-carboxylate] |  | 
> 75% | < 100 nM | 25 to 75% | > 1000 nM | 25 to 75% | > 1000 nM | O=C(OC(C(F)(F)F)C(F)(F)F)N1CCN(Cc2ccc(Cl)cc2N2CC[C@H](N3CCCS3(=O)=O)C2)CC1 [Example 46, 1,1,1,3,3,3-hexafluoropropan-2-yl (S)-4-(4-chloro-2-(3-(1,1-dioxidoisothiazolidin-2-yl)pyrrolidin-1-yl)benzyl)piperazine-1-carboxylate] |  | 
> 75% | < 100 nM | > 75% | 100 to 1000 nM | < 25% | > 1000 nM | Cc1c(CN2CCN(C(=O)OC(C(F)(F)F)C(F)(F)F)CC2)cccc1N1CCC(NS(C)(=O)=O)CC1 [Example 52, 1,1,1,3,3,3-hexafluoropropan-2-yl 4-(2-methyl-3-(4-(methylsulfonamido)piperidin-1-yl)benzyl)piperazine-1-carboxylate] |  | 
> 75% | 100 to 1000 nM | < 25% | > 1000 nM | < 25% | > 1000 nM | O=C(O)C1CCN(c2cc(Cl)ccc2CN2CCN(C(=O)OC(C(F)(F)F)C(F)(F)F)CC2)CC1 [Example 62, 1-(5-chloro-2-((4-(((1,1,1,3,3,3-hexafluoropropan-2-yl)oxy)carbonyl)piperazin-1-yl)methyl)phenyl)piperidine-4-carboxylic acid] |  | 
> 75% | < 100 nM | > 75% | 100 to 1000 nM | < 25% | > 1000 nM | O=C(O)C1CCN(c2cc(C(F)(F)F)ccc2CN2CCN(C(=O)OC(C(F)(F)F)C(F)(F)F)CC2)CC1 [Example 63, 1-(2-((4-(((1,1,1,3,3,3-hexafluoropropan-2-yl)oxy)carbonyl)piperazin-1-yl)methyl)-5-(trifluoromethyl)phenyl)piperidine-4-carboxylic acid] |  | 
> 75% | 100 to 1000 nM | < 25% | > 1000 nM | < 25% | > 1000 nM | O=C(OC(C(F)(F)F)C(F)(F)F)N1CCN(Cc2ccc(Cl)cc2N2CC3CN(C4CC4)CC3C2)CC1 (stereo not drawn) [Example 64, 1,1,1,3,3,3-hexafluoropropan-2-yl 4-(4-chloro-2-(5-cyclopropylhexahydropyrrolo[3,4-c]pyrrol-2(1H)-yl)benzyl)piperazine-1-carboxylate] |  | 
> 75% | < 100 nM | > 75% | 100 to 1000 nM | < 25% | > 1000 nM | CCOC(=O)C1CCCN1c1cc(C(F)(F)F)ccc1CN1CCN(C(=O)OC(C(F)(F)F)C(F)(F)F)CC1 (stereo not drawn) [Example 70, 1,1,1,3,3,3-hexafluoropropan-2-yl 4-(2-(2-(ethoxycarbonyl)pyrrolidin-1-yl)-4-(trifluoromethyl)benzyl)piperazine-1-carboxylate] |  | 
> 75% | < 100 nM | > 75% | 100 to 1000 nM | < 25% | > 1000 nM | O=C(O)C1CCN(c2cc(C(F)(F)F)ccc2CN2CCN(C(=O)OC(C(F)(F)F)C(F)(F)F)CC2)C1 (stereo not drawn) [Example 72, 1-(2-((4-(((1,1,1,3,3,3-hexafluoropropan-2-yl)oxy)carbonyl)piperazin-1-yl)methyl)-5-(trifluoromethyl)phenyl)pyrrolidine-3-carboxylic acid] |  | 
